pIC50: −log10 of the molar value. Blank lines part the entries; values can stand above or below the compound they belong to.
How the values were obtained:
[1] = tested on: human hepatocytes; experiment: Intrinsic clearance in human hepatocytes (-/+ABT); type: in vitro ADME; details: with vs without ABT (pan-CYP450 inhibitor)
Description: Intrinsic Clearance in Human Hepatocytes (−/+ABT)
This method is intended to identify in vitro metabolic clearance by substrate depletion in hepatocytes. Incubation in the presence and absence of ABT, a pan-CYP450 enzyme inhibitor, is used to estimate the contribution of CYP-mediated metabolism. Cryopreserved human hepatocytes are thawed at 37° C., spun down and reconstituted in hepatocyte maintenance media to a density of 1×10^6 viable cells/mL. To a pre-warmed 96-well plate, 196 μL of the hepatocyte suspension is added to each well. The cells are pre-incubated with and without ABT as follows: for ABT pre-incubation, 2 μL of 100 mM ABT solution is added (2 μL of media without ABT is added to control samples), and the plate incubated at 37° C. for 30 min under constant shaking (˜600 rpm). Following, 2 μL of a 30 μM stock solution of test article is added and at 0, 15, 30, 60, 120, 240 min 20 μL aliquots are taken and quenched by transfer to ACN containing internal standard. Following centrifugation at 4000 rpm for 30 min, supernatant concentrations are determined by LC-MS/MS. Clearance is calculated from the slope of % compound remaining over time.

[2] = biological target: OATP1B1 (Homo sapiens (Human), UniProt Q9Y6L6); experiment: Inhibition of OATP1B1 (rosuvastatin uptake); type: cell-based; details: rosuvastatin 400 nM substrate, 30 min pre-incubation
Description: (§1) Inhibition of OATP1B1 and OATP1B3
(§2) The OATP1B1, OATP1B3, and vector control (VC) cells are grown in 5% CO2 at 37° C. in a humidified atmosphere in DMEM supplemented with 10% FBS, 50 μg/mL gentamycin, and 5 μg/mL blasticidin. The cells are seeded in 24-well BioCoat Poly-D-Lysine plates. The cells are treated with 5 mM sodium butyrate in supplemented DMEM 24 h prior to experimentation. Cell cultures are washed twice with pre-warmed PBS prior to experimentation. After washing, all cell types are incubated for 30 min at 37° C. in 200 μL buffer, buffer plus varying concentration of test article, or with appropriate positive control inhibitor. Based upon preliminary data concentrations from 0.025 to 12.5 μM for OATP1B1 and 0.20 to 100 μM for OATP1B3 (nominal) are tested. At the start of the preincubation, 50 µL of buffer is removed for determination of in-well test article concentrations by LC-MS/MS. Following the pre-incubation period, the buffer is removed. […] Samples are taken from each well from plates to count for radioactivity and protein concentration in each well is determined by bicinchoninic acid method. IC50 values are determined by fitting the data using GraphPad Prism. Nominal concentrations are converted to measured concentrations prior to fitting.

[3] = Elimination pathways in bile duct cannulated Beagle dogs; type: in vivo; details: IV 1 mg/kg
Description: (§3) Liquid Chromatograph with Tandem Mass Spectrometry (LC-MS/MS) Method for Pharmacokinetic Assays: Samples are extracted using a protein precipitation by adding 180 μL of MeOH:ACN (1:1, v/v) containing an internal standard and 25 μL (rodent samples) or 50 μL(non-rodent samples) of plasma. Samples are then diluted with Methanol:Water (1:1, v/v) to get concentrations within standard curve range. Diluted samples are analyzed by LC-MS/MS using a Sciex API 4000 triple quadrupole mass spectrometer (Applied Biosystems/MDS; Foster City, Calif.) equipped with a TurbolonSpray interface, and operated in positive ion mode. The analytes are chromatographically separated using a Thermo Betasil C18 5 um 20×2.1 mm Javelin column (rodent samples) or Advantage ECHIELON C18 4 um 20 mm×2.1 mm ID column (non-rodent samples). LC conditions are Water/1 M ammonium bicarbonate, (2000:10, v/v) (Mobile Phase A), and MeOH/1 M ammonium bicarbonate, (2000:10, v/v) (Mobile Phase B).
Example 1 is administered by a single intravenous (IV; 1 mg/kg; volume of 1 mL/kg) dose in vehicle. Blood is collected from each animal at 0, 0.033, 0.083, 0.25, 0.5, 1, 2, 4, 8, 12, 24, 32, 48 and 72 h post-dosage. Bile is collected from each animal at 1, 2, 3, 4, 5, 6, 12, 18, 24, 32, 48 and 72 h post-dosage. Urine is collected at 12, 24, 48, and 72 h and feces collected at 24, 48, and 72 h post-dosage. The plasma, bile, urine and feces concentrations of Example 1 are determined by a LC-MS/MS method as described above.

[4] = biological target: human KHK-C (Homo sapiens (Human), UniProt P50053); experiment: KHK enzyme activity assay, human KHK-C; type: biochemical; details: fructose 250 μM, ATP 150 μM; read-out: hKHK-C IC50
Description: (§4) KHK Enzyme Activity Assay for Human KHK-C and Human KHK-A
(§5) Enzyme is prepared in assay buffer [50 mM 4-(2-hydroxyethyl)piperazine-1-ethanesulfonic acid (HEPES), 10 mM potassium chloride, 100 mM magnesium chloride, 2 mM tris(2-carboxyethyl)phosphine (TCEP), 0.01% n-octyl glucoside] and incubated with compounds at RT for 15 min. The reaction is carried out in 100 μL volumes containing substrate concentrations of fructose (250 μM for KHK-C assay and 1.25 mM for KHK-A assay) and ATP (150 μM for both isoforms); which are further incubated at RT for 20 min. The reaction is then halted by the addition of stop buffer; consisting of 0.2% formic acid and 1 μg/ml ^13C6-fructose-6-phosphate (^13C6-F6P) internal standard. […] RapidFire MS Analysis for Quantitation of F1P: […]
(§6) Solvent A, used for sample loading and washing, is 6 mM octylamine (Acros Organics 129495000) brought to pH 5.0 using acetic acid. […] Samples are sequentially analyzed by aspirating 10 μL onto the collection loop under vacuum directly from multiwell plates. […]
(§7) The triple quadrupole mass spectrometer is equipped with an ESI source and analytes are monitored using selected reaction monitoring (SRM) in negative mode [M−H]−. F1P is monitored at m/z 259.02/96.9 and ^13C6-fructose-6-phosphate is monitored at m/z 264.99/97. The area ratio values for F1P is calculated using ^13C6-fructose-6-phosphate as internal standard.

[5] = Pharmacokinetics in OATP1A/1B knockout mice; type: in vivo; details: OATP1A/1B knockout (Taconic #10707), mouse, IV 1 mg/kg
Description: as §3
(§8) Example 1 is administered by a single intravenous (IV; 1 mg/kg; volume of 1 mL/kg) dose in vehicle. Blood is collected from each animal at 0, 0.08, 0.25, 0.5, 1, 2, 4, 8, 12, and 24 h post-dosage. Liver, spleen, and pancreas is collected, weighed and perfused at 24 h post-dosage. The plasma and tissue concentrations of Example 1 are determined by a LC-MS/MS method as described above.

[6] = biological target: human KHK-A (Homo sapiens (Human), UniProt P50053); experiment: KHK enzyme activity assay, human KHK-A; type: biochemical; details: fructose 1.25 mM, ATP 150 μM; read-out: hKHK-A IC50
Description: as §4, §5, §6, §7

[7] = Pharmacokinetics in FVB wild type mice; type: in vivo; details: mouse, IV 1 mg/kg
Description: as §3, §8

[8] = Pharmacokinetics in cynomolgus monkeys; type: in vivo; details: cynomolgus monkey, plasma, PO 10 mg/kg
Description: as §3
The compounds is administered by a single oral (PO; 10 mg/kg; volume of 5 mL/kg) dose in vehicle. Blood is collected from each animal at 0, 0.25, 0.5, 1, 2, 4, 8, 12, 24, 32, 48, and 72 h post-dosage. The plasma concentrations of Example 1 are determined by a LC-MS/MS method as described above.

[9] = Pharmacokinetics in Beagle dogs; type: in vivo
Description: as §3
Example 1 is administered by a single oral (PO; 3 mg/kg; volume of 2 mL/kg) or intravenous (IV; 1 mg/kg; volume of 1 mL/kg) dose in vehicle. Blood is collected from each animal at 0, 0.03 (IV group only), 0.08 (IV), 0.25, 0.5, 1, 2, 4, 8, 12, 24, 32 (IV), 48 (IV), and 72 (IV) h post-dosage. The plasma concentrations of Example 1 are determined by a LC-MS/MS method as described above.

[10] = biological target: OATP1B3 (Homo sapiens (Human), UniProt Q9NPD5); experiment: Inhibition of OATP1B3 (rosuvastatin uptake); type: cell-based; details: rosuvastatin 400 nM substrate, 30 min pre-incubation
Description: as §1, §2

[11] = liver at 24 h, read-out: mean liver unbound partition coefficient (Kpuu)
[12] = plasma, 1 mg/kg, heading: mean clearance
[13] = plasma, read-out: volume of distribution

Chain of human KHK-C (P50053 whole entry): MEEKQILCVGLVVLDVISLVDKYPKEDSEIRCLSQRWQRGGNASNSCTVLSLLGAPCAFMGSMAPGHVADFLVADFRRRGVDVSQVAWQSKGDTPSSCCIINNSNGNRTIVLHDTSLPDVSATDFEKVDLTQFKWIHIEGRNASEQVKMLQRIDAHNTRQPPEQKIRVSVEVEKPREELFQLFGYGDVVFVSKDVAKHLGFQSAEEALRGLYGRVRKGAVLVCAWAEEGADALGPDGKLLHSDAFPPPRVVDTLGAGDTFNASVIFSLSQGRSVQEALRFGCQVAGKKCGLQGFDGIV
Chain of human KHK-A (P50053 other isoform, or with tags, fused parts or gaps): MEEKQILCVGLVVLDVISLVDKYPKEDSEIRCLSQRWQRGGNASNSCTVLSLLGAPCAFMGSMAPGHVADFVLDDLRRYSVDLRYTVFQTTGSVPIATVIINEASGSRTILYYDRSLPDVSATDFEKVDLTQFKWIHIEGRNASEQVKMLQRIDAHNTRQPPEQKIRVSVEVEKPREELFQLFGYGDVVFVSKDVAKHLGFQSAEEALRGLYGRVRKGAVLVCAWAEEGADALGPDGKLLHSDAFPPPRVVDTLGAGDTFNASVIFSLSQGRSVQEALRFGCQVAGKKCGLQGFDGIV
Chain of OATP1B1 (Q9Y6L6 whole entry, species assumed): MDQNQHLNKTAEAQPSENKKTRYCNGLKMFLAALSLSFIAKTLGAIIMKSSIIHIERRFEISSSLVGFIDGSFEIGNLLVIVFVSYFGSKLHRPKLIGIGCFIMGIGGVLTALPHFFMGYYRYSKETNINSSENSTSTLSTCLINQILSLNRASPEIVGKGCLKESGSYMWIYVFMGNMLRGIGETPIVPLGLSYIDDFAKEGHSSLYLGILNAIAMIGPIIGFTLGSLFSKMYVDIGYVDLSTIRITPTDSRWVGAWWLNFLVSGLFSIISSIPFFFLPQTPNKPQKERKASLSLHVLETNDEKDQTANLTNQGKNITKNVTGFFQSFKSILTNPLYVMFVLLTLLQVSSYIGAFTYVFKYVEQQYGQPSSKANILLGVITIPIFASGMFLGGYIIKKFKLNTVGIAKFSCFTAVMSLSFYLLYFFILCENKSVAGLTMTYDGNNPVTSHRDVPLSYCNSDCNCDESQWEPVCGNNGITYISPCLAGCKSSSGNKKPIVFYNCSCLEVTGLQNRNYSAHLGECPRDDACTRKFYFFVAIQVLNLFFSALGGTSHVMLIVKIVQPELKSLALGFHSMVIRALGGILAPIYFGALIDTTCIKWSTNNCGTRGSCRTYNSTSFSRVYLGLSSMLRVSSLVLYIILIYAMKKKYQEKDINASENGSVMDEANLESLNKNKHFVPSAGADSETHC
Chain of OATP1B3 (Q9NPD5 whole entry, species assumed): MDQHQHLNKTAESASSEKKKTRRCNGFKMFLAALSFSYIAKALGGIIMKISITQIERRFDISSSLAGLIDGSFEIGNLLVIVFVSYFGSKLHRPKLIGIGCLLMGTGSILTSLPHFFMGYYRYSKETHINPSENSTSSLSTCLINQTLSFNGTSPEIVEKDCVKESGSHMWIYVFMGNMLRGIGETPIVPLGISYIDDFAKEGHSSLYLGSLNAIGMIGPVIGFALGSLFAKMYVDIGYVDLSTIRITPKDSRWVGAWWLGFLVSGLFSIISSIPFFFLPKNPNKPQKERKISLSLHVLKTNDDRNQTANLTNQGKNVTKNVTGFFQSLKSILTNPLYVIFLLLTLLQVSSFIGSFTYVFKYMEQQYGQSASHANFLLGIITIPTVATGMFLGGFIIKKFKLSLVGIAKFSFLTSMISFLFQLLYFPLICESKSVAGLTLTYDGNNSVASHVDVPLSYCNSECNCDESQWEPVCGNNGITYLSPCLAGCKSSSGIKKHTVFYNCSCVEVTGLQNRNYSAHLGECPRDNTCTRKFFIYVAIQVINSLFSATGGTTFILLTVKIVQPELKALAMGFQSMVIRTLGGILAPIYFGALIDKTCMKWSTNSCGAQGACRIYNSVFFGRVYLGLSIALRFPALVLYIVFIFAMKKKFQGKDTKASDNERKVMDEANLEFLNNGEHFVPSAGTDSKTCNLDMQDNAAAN

inhibition of clearance by ABT [1]: ~12%
pIC50 [2]: 6.92
administered IV dose recovered in bile [3]: ~10%
urine levels [3]: negligible
clearance ([3]; dog, plasma, 1 mg/kg, heading: mean clearance): 4.69 mL/min/kg
half-life ([3]; dog, plasma): 2.9 h
Vd ([3]; dog, plasma, read-out: volume of distribution): 0.546 L/kg
pIC50 [4]: 8.05
Kp uu at 24 h [5, 11]: 24.2
clearance [5, 12]: 1.34 mL/min/kg
half-life ([5]; plasma): 9.36 h
Vd [5, 13]: 0.986 L/kg
pIC50 [6]: 7.72
Kp uu at 24 h [7, 11]: 67.5
clearance [7, 12]: 6.91 mL/min/kg
half-life ([7]; plasma): 5.43 h
Vd [7, 13]: 2.74 L/kg
half-life [8]: 15.3 h
mean half-life ([9]; IV 1 mg/kg): 7.4 h
clearance ([9]; dog, plasma, 1 mg/kg, heading: mean clearance, IV 1 mg/kg): 2.52 mL/min/kg
half-life ([9]; dog, plasma, IV 1 mg/kg): 7.4 h
Vd ([9]; dog, plasma, IV 1 mg/kg, read-out: volume of distribution): 1.33 L/kg
bioavailability ([9]; dog, plasma, PO 3 mg/kg): ~93%
half-life ([9]; dog, plasma, PO 3 mg/kg): 6.9 h
pIC50 [10]: 5.26
SMILES: C[C@H]1CCN1c1nc(N2CC[C@H](CC(=O)O)C2)cc(C(F)(F)F)c1C#N [Example 1, 2-[(3R)-1-[5-cyano-6-[(2S)-2-methylazetidin-1-yl]-4-(trifluoromethyl)-2-pyridyl]pyrrolidin-3-yl]acetic Acid]

pIC50 [4]: 7.57
pIC50 [6]: 7.43
SMILES: C[C@H]1CCN1c1nc(N2CC(CC(=O)O)C2)cc(C(F)(F)F)c1C#N [Example 2, 2-[1-[5-cyano-6-[(2S)-2-methylazetidin-1-yl]-4-(trifluoromethyl)-2-pyridyl]azetidin-3-yl]acetic Acid]

Source: patent US10781212B2, “2,6-diamino pyridine compounds” (Eli Lilly and Company, priority 2018, dated 2020)
